The values below come from patent US12692233B2, “Anthelmintic compounds comprising a pyridine structure” (Intervet Inc., priority 2020, dated 2026).

Structures are written as SMILES.

In assay [1] the target is T1, human Maxi K channel (BK channel) (Homo sapiens, UniProt Q12791).
T1 construct: expressed in transfected cells; host or cells: CHO K1
In words: Agonistic activity at the human Maxi K channel (BK channel), FLIPR membrane potential in CHO K1 cells. It is filed as cell-based. Conditions: CHO K1 cells stably transfected with KCNMA1 and beta1 (KCNMB1) subunits, membrane potential dye. The text has this:
A CHO K1 cell line was stably transfected with the KCNMA1 (KCa1.1, U11058) and beta1 (KCNMB1) subunits of the human Maxi K channel (Ponte et al, Molecular Pharmacology 2012, 81(4), 567-577).
The complete measurement takes 150 s.

The next assay deals with Dirofilaria immitis. In words: In vitro assay Dirofilaria immitis L1 (microfilaria), motility. Type of assay: cell-based. Conditions: 72 h, 3 days incubation, reduction in motility vs DMSO. As for the experimental part:
Approximately 500 D. immitis microfilaria were added to a microtiter plate containing a nutrient medium and the test compound in DMSO at varying concentrations. After incubation for 3 days, activity was evaluated as reduction in motility as compared to DMSO as negative control. Compounds were tested in duplicates. Based on the concentration response curves EC50 values were calculated.

The next assay deals with Ascaridia galli. Briefly: In vitro assay Ascaridia galli larval stage 3. It is filed as cell-based. Conditions: larval stage 3, 20 larvae per well, microscopic examination, read-out: MEC (minimum effective concentration) against Ascaridia galli L3. The text has this:
(§1) […] galli (intestinal roundworm of chicken), larval stage 3 (“L3”); and Oesophagostumum dentatum (nodular worm of swine), larval stages 3 and 4 (respectively “L3” and “L4”) where suspended in a nutrient medium and distributed to 96 well plates with 20 larvae per well. The wells were spiked DMSO solutions of the compounds with declining concentration.

For a further assay, the system named is Haemonchus contortus. In words: In vitro assay Haemonchus contortus, motility of exsheathed L3 larvae. Type of assay: cell-based. Conditions: 168 h, 7 days incubation, motility reduced by 50% with respect to positive control ivermectin, read-out: ED50 against Haemonchus contortus. How it is done:
Solutions of compounds with declining concentrations in DMSO were prepared, diluted with nutrient medium and distributed to 96 well microtiterplates. […]3 larvae of Haemonchus contortus were incubated for 20 min at 37° C. in a water bath, separated by centrifugation and added to the wells with 300 Larvae/well. After incubation for 7 days motility was assessed by automated microscopy. Ivermectin was used as positive control, DMSO as negative control and ED50 values were calculated which represent the concentration for an individual compound that reduces motility by 50% with respect to the […].

Assay [2] relates to Oesophagostumum dentatum. In words: In vitro assay Oesophagostumum dentatum larval stage 3. It is filed as cell-based. Conditions: larval stage 3, 20 larvae per well, microscopic examination; read-out: MEC (minimum effective concentration) against Oesophagostumum dentatum L3.
Excerpt: as §1

Another assay concerns the target C. elegans Slo-1a (Caenorhabditis elegans, UniProt Q95V25). In words: Agonistic activity at C. elegans Slo-1a, FLIPR membrane potential in CHO K1 cells. Conditions: EC50 agonistic activity at C. elegans Slo-1a, CHO K1 cells stably transfected with slo-1a, membrane potential dye.
The subject of assay [3] is Oesophagostumum dentatum. In words: In vitro assay Oesophagostumum dentatum larval stage 4. Conditions: larval stage 4, 20 larvae per well, microscopic examination; read-out: MEC (minimum effective concentration) against Oesophagostumum dentatum L4. Type of assay: cell-based.
Excerpt: as §1

In a further assay the test system is Acanthocheilonema viteae. Briefly: In vitro assay Acanthocheilonema viteae L1 (microfilaria), motility. Conditions: 72 h, 3 days incubation, reduction in motility vs DMSO. Type of assay: cell-based. As for the experimental part: Approximately 500 A. viteae microfilaria were added to a microtiter plate containing a nutrient medium and the test compound in DMSO at varying concentrations. After incubation for 3 days, activity was evaluated as reduction in motility as compared to DMSO as negative control. Compounds were tested in duplicates. Based on the concentration response curves EC50 values were calculated.

C. elegans Slo-1a, sequence (Q95V25 whole entry): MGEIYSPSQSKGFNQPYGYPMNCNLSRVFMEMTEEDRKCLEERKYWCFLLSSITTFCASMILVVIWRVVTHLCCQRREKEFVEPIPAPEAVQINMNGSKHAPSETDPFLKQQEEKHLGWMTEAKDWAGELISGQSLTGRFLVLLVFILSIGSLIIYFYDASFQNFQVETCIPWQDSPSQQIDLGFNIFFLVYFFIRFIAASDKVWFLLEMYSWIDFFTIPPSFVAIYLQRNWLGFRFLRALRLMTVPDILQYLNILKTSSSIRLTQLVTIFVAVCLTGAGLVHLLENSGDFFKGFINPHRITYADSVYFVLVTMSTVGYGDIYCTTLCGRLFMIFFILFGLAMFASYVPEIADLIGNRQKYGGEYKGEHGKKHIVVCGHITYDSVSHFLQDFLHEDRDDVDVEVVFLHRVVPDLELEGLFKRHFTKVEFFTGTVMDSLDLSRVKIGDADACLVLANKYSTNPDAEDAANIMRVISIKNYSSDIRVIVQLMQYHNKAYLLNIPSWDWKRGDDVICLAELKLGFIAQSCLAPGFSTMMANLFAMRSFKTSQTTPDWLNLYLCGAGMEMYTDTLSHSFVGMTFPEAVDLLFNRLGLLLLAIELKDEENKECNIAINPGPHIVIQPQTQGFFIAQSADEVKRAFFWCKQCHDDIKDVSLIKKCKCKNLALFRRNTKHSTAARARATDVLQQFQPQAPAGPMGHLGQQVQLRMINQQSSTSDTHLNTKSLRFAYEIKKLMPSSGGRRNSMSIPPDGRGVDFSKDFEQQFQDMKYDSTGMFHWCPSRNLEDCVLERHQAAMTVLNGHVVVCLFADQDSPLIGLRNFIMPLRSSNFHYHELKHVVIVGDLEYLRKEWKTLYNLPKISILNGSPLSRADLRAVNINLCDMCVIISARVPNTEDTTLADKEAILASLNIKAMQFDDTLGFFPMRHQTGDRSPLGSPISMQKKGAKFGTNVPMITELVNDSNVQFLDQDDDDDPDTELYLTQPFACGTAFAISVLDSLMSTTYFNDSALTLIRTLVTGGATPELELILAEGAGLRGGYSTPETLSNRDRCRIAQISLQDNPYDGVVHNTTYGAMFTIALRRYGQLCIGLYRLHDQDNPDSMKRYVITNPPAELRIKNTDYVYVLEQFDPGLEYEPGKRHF
T1 sequence (Q12791 1-1178 isoform Q12791-5): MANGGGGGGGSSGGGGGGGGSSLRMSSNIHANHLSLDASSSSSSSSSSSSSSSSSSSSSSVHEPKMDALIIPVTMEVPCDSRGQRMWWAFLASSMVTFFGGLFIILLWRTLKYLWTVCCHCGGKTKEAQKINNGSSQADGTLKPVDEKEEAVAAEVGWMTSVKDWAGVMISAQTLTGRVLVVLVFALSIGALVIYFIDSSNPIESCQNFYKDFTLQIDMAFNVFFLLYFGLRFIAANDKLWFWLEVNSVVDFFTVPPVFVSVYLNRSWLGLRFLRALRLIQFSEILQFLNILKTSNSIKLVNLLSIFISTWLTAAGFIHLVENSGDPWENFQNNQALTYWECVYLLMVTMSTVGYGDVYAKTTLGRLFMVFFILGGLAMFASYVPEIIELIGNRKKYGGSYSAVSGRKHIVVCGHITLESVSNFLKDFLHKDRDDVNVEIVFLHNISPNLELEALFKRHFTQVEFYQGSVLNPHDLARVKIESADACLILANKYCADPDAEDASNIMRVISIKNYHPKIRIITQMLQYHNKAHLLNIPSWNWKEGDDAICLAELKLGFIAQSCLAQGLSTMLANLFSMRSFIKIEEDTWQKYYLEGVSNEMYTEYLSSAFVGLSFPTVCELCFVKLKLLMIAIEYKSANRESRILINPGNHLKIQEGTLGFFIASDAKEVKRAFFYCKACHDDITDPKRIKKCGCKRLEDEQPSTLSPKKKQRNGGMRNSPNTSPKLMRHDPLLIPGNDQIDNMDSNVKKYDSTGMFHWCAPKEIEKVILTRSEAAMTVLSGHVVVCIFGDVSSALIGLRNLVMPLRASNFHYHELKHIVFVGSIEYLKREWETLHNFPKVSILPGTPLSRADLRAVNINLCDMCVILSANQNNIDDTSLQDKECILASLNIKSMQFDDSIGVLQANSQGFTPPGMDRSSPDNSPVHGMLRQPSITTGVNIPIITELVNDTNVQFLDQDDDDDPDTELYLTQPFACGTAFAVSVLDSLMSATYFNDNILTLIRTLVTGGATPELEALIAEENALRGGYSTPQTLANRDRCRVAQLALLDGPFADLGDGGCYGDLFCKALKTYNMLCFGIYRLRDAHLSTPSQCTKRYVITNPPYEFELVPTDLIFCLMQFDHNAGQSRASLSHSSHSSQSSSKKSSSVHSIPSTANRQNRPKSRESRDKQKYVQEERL
T1 sequence (Q16558 whole entry partner): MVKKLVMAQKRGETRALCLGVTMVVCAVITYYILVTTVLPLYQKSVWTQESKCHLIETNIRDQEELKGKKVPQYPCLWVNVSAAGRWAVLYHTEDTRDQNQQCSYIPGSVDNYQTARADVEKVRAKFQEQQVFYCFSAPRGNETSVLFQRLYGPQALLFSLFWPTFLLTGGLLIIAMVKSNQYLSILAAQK
Procedure for C. elegans Slo-1a: A CHO K1 cell line stably transfected with the Caenorhabditis elegans slo-1a (accession no Y51A2D.19a) was established. Cells were seeded in microtiter plates (black 384-well MTP, clear bottom) in a concentration of 10,000 cells/well in 25 μl medium and cultured for 20 to 24 hours at 37° C. and 5% CO2. After incubation, 25 μl of FMP-dye Blue-Tyrode's was added to each well and incubated at room temperature for 30 min. Ten minutes after addition of 12.5 μl compound solution, the plates are transferred to the FLIPR for measurement.
For the membrane potential measurements, the plates were placed in the FLIPR Penta (Molecular Devices). The baseline measurement of the fluorescence was stared for 20 sec (Exc. 510-545 nm, Emm. 565-625 nm). Potential channel opening measurement was started by addition of 25 μl of KCl-Tyrode (final assay concentration of the KCl-Tyrode: 70 mM KCl, 2 mM CaCl2, 1 mM MgCl2, 0.8 mM NaH2PO4, 5 mM Glucose, 28 mM Hepes, pH 7.4, including the voltage sensitive dye). The complete measurement takes 150 s.
EC50 values were determined in triplicate utilizing compound dilution series. The data were determined at least in two independent tests. The data were proceeded by using the ActivityBase XE Runner software (IDBS) for curve fitting and calculation of the half-maximal effective concentration.

Take `CN(C)c1cc(Sc2cc(Cl)cc(Cl)c2)ncc1C(=O)N[C@@H]1CCOc2ccccc21` [Compound 18]: the figures for the EC50 (in assay [1]; in the assay with Dirofilaria immitis; in the assay on Haemonchus contortus) were greater than 30 µM, less than 10 µM and less than 50 µM, respectively. Besides, the minimal effective concentration in the assay on Ascaridia galli was no more than 50 µM.
As to `CSc1cc(Sc2cccc(Cl)c2Cl)ncc1C(=O)N[C@H]1CCOc2ccccc21` [Compound 52], the figures for the EC50 (in assay [1]; at C. elegans Slo-1a; in the assay on Haemonchus contortus) were greater than 30 µM, less than 10 µM and less than 50 µM, respectively. The minimal effective concentration in the assay on Oesophagostumum dentatum [2] and with Ascaridia galli was no more than 50 µM throughout.
Take `CN(C)c1cc(Oc2cccc(Cl)c2Cl)ncc1C(=O)N[C@H]1CCCc2ccccc21` [Compound 34]: the EC50 in assay [1] was greater than 30 µM; on C. elegans Slo-1a, less than 1 µM; with Haemonchus contortus, less than 50 µM.
As to `CCSc1cc(Sc2cc(Cl)cc(Cl)c2)ncc1C(=O)N[C@H]1CCc2ccccc21` [Compound 73], the values for the EC50 (in assay [1]; with Haemonchus contortus) were greater than 30 µM and less than 50 µM, respectively. In the assay on Oesophagostumum dentatum [2], the minimal effective concentration was no more than 50 µM.
With `COc1cc(Sc2cc(Cl)cc(Cl)c2)ncc1C(=O)N[C@H]1CCCc2ccccc21` [Compound 82], the EC50 was greater than 30 µM in assay [1]; less than 10 µM at C. elegans Slo-1a; less than 10 µM with Dirofilaria immitis; less than 10 µM in the assay on Acanthocheilonema viteae; less than 50 µM with Haemonchus contortus. Further, in the assay on Oesophagostumum dentatum [3], the minimal effective concentration was no more than 50 µM.
Regarding `O=C(N[C@H]1CCCc2ccccc21)c1cnc(Sc2cccc(Cl)c2Cl)cc1N1CCOCC1` [Compound 21], the EC50 in assay [1] is greater than 30 µM; on C. elegans Slo-1a, less than 1 µM; with Haemonchus contortus, less than 50 µM.
With `CN(C)c1cc(Oc2cccc(Cl)c2Cl)ncc1C(=O)N[C@H]1CCc2ccccc21` [Compound 35], the EC50 is greater than 30 µM in assay [1], less than 1 µM on C. elegans Slo-1a and less than 50 µM with Haemonchus contortus.
Regarding `CSc1cc(Sc2cc(Cl)cc(Cl)c2)ncc1C(=O)N[C@@H]1CCOc2ccccc21` [Compound 55], the figures for the EC50 (in assay [1]; in the assay on Haemonchus contortus) were greater than 30 µM and less than 50 µM, respectively.
For the compound `CCOc1cc(Sc2cccc(Cl)c2Cl)ncc1C(=O)N[C@H]1CCc2ccccc21` [Compound 72], the EC50 in assay [1] is greater than 30 µM; at C. elegans Slo-1a it was less than 10 µM; in the assay on Dirofilaria immitis, less than 10 µM; with Acanthocheilonema viteae, less than 10 µM; with Haemonchus contortus, less than 50 µM. The minimal effective concentration with Ascaridia galli was no more than 50 µM.
